Source: PubChem BioAssay AID2060907 (Molecular Pharmacology Branch, DTP, NCI, 2025)
Several values for one entry are separate records, joined by “and”; a condition that tells them apart may be missing. Equal entries are not always repeated.

System: 388556-164-R-J1-PDC complex spheroid viability
Assay: Anticancer human tumor 388556-164-R-J1-PDC patient-derived colon adenocarcinoma cell line growth inhibition [RAS]
Settings: for viability, T/C: stronger effect = lower value
Summary of the method: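 Multi-cell-type spheroids: tumor cells plus HUVEC endothelial cells and mesenchymal stem cells. RAS-pathway inhibitors were combined with targeted agents, each dosed in half-log steps down from clinical Cmax, or from 10 microM when Cmax was unknown.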
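Note: spheroids exposed to compound for 7 days before readout.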
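Throughout, for viability, T/C: 100% = DMSO vehicle control luminescence.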

## NC1c2ccccc2OC12CCN(c1cnc3c(N4CCCc5ncccc54)n[nH]c3n1)CC2 (stereo unspecified) + C=CC(=O)N1CCN(c2nc(OCC3CCCN3C)nc3c(F)c(-c4nc(N)cc(C)c4C(F)(F)F)c(Cl)cc23)C(C)C1
Curve of first compound, second compound 0.00316 µM
  IC50: 180 nM
Curve of first compound, second compound 0.01 µM
  IC50: 152 nM
Curve of first compound, second compound 0.0316 µM
  IC50: 165 nM
Curve of first compound, second compound 0.1 µM
  IC50: 230 nM
Curve of first compound, second compound 0.316 µM
  IC50: 190 nM
Curve of first compound, second compound 1 µM
  IC50: 240 nM
Second compound 0.00316 µM, first compound 0.0316 µM
  viability, T/C: 63.9%
Second compound 0.00316 µM, first compound 0.1 µM
  viability, T/C: 55.6%
Second compound 0.00316 µM, first compound 0.316 µM
  viability, T/C: 45.8%
Second compound 0.00316 µM, first compound 1 µM
  viability, T/C: 39.4%
Second compound 0.00316 µM, first compound 3.16 µM
  viability, T/C: 44.6%
Second compound 0.00316 µM, first compound 10 µM
  viability, T/C: 38.8%
Second compound 0.01 µM, first compound 0.0316 µM
  viability, T/C: 67.4%
Second compound 0.01 µM, first compound 0.1 µM
  viability, T/C: 55.4%
Second compound 0.01 µM, first compound 0.316 µM
  viability, T/C: 39.1%
Second compound 0.01 µM, first compound 1 µM
  viability, T/C: 39.7%
Second compound 0.01 µM, first compound 3.16 µM
  viability, T/C: 44.2%
Second compound 0.01 µM, first compound 10 µM
  viability, T/C: 38.8%
Second compound 0.0316 µM, first compound 0.0316 µM
  viability, T/C: 71.1%
Second compound 0.0316 µM, first compound 0.1 µM
  viability, T/C: 54.1%
Second compound 0.0316 µM, first compound 0.316 µM
  viability, T/C: 44.1%
Second compound 0.0316 µM, first compound 1 µM
  viability, T/C: 38.7%
Second compound 0.0316 µM, first compound 3.16 µM
  viability, T/C: 39.8%
Second compound 0.0316 µM, first compound 10 µM
  viability, T/C: 32.9%
Second compound 0.1 µM, first compound 0.0316 µM
  viability, T/C: 70%
Second compound 0.1 µM, first compound 0.1 µM
  viability, T/C: 59.5%
Second compound 0.1 µM, first compound 0.316 µM
  viability, T/C: 45.7%
Second compound 0.1 µM, first compound 1 µM
  viability, T/C: 40.5%
Second compound 0.1 µM, first compound 3.16 µM
  viability, T/C: 40.1%
Second compound 0.1 µM, first compound 10 µM
  viability, T/C: 35.6%
Second compound 0.316 µM, first compound 0.0316 µM
  viability, T/C: 69.2%
Second compound 0.316 µM, first compound 0.1 µM
  viability, T/C: 54.6%
Second compound 0.316 µM, first compound 0.316 µM
  viability, T/C: 45.3%
Second compound 0.316 µM, first compound 1 µM
  viability, T/C: 41.8%
Second compound 0.316 µM, first compound 3.16 µM
  viability, T/C: 40.6%
Second compound 0.316 µM, first compound 10 µM
  viability, T/C: 35.5%
Second compound 1 µM, first compound 0.0316 µM
  viability, T/C: 70.3%
Second compound 1 µM, first compound 0.1 µM
  viability, T/C: 58.3%
Second compound 1 µM, first compound 0.316 µM
  viability, T/C: 45.9%
Second compound 1 µM, first compound 1 µM
  viability, T/C: 40%
Second compound 1 µM, first compound 3.16 µM
  viability, T/C: 34.4%
Second compound 1 µM, first compound 10 µM
  viability, T/C: 28.1%

## CC1(O)CCCC1n1c(=O)c(C(F)F)cc2cnc(NC3CCN(S(C)(=O)=O)CC3)nc21 (stereo unspecified)
Compound 0.0316 µM
  viability, T/C: 92.6% and 106% and 83.1%
Compound 0.1 µM
  viability, T/C: 100% and 93% and 103%
Compound 0.316 µM
  viability, T/C: 107% and 99.9% and 99.4%
Compound 1 µM
  viability, T/C: 102% and 97.4% and 98%
Compound 3.16 µM
  viability, T/C: 111% and 105% (2×)
Compound 10 µM
  viability, T/C: 75.2% and 57.1% and 77.8%
Curve of compound
  IC50: > 10000 nM

## CC1(C)CCC(Nc2ncc(C(F)(F)F)c(-c3c[nH]c4c(P(C)(C)=O)c(C#N)ccc34)n2)CN1 (stereo unspecified) + CCn1c(-c2cc(N3CCN(C)CC3)cnc2C(C)OC)c2c3cc(ccc31)-c1csc(n1)CC(NC(=O)C1CC1C)C(=O)N1CCCC(N1)C(=O)OCC(C)(C)C2
Curve of first compound, second compound 0.000949 µM
  IC50: > 300 nM
Curve of first compound, second compound 0.003 µM
  IC50: > 300 nM
Curve of first compound, second compound 0.00949 µM
  IC50: > 300 nM
Curve of first compound, second compound 0.03 µM
  IC50: > 300 nM
Curve of first compound, second compound 0.0949 µM
  IC50: 3.41 nM
Curve of first compound, second compound 0.3 µM
  IC50: < 0.949 nM
Second compound 0.000949 µM, first compound 0.000949 µM
  viability, T/C: 104%
Second compound 0.000949 µM, first compound 0.003 µM
  viability, T/C: 87.9%
Second compound 0.000949 µM, first compound 0.00949 µM
  viability, T/C: 98.1%
Second compound 0.000949 µM, first compound 0.03 µM
  viability, T/C: 78.5%
Second compound 0.000949 µM, first compound 0.0949 µM
  viability, T/C: 83.8%
Second compound 0.000949 µM, first compound 0.3 µM
  viability, T/C: 84.9%
Second compound 0.003 µM, first compound 0.000949 µM
  viability, T/C: 101%
Second compound 0.003 µM, first compound 0.003 µM
  viability, T/C: 86.9%
Second compound 0.003 µM, first compound 0.00949 µM
  viability, T/C: 82.5%
Second compound 0.003 µM, first compound 0.03 µM
  viability, T/C: 86.8%
Second compound 0.003 µM, first compound 0.0949 µM
  viability, T/C: 85.3%
Second compound 0.003 µM, first compound 0.3 µM
  viability, T/C: 77.1%
Second compound 0.00949 µM, first compound 0.000949 µM
  viability, T/C: 84.2%
Second compound 0.00949 µM, first compound 0.003 µM
  viability, T/C: 73.3%
Second compound 0.00949 µM, first compound 0.00949 µM
  viability, T/C: 75.8%
Second compound 0.00949 µM, first compound 0.03 µM
  viability, T/C: 72.5%
Second compound 0.00949 µM, first compound 0.0949 µM
  viability, T/C: 74.6%
Second compound 0.00949 µM, first compound 0.3 µM
  viability, T/C: 68.9%
Second compound 0.03 µM, first compound 0.000949 µM
  viability, T/C: 77.4%
Second compound 0.03 µM, first compound 0.003 µM
  viability, T/C: 70%
Second compound 0.03 µM, first compound 0.00949 µM
  viability, T/C: 64.5%
Second compound 0.03 µM, first compound 0.03 µM
  viability, T/C: 67.9%
Second compound 0.03 µM, first compound 0.0949 µM
  viability, T/C: 71.6%
Second compound 0.03 µM, first compound 0.3 µM
  viability, T/C: 58.2%
Second compound 0.0949 µM, first compound 0.000949 µM
  viability, T/C: 55.5%
Second compound 0.0949 µM, first compound 0.003 µM
  viability, T/C: 47.1%
Second compound 0.0949 µM, first compound 0.00949 µM
  viability, T/C: 47.9%
Second compound 0.0949 µM, first compound 0.03 µM
  viability, T/C: 44.1%
Second compound 0.0949 µM, first compound 0.0949 µM
  viability, T/C: 48.8%
Second compound 0.0949 µM, first compound 0.3 µM
  viability, T/C: 46.1%
Second compound 0.3 µM, first compound 0.000949 µM
  viability, T/C: 33%
Second compound 0.3 µM, first compound 0.003 µM
  viability, T/C: 34.5%
Second compound 0.3 µM, first compound 0.00949 µM
  viability, T/C: 33.1%
Second compound 0.3 µM, first compound 0.03 µM
  viability, T/C: 35.9%
Second compound 0.3 µM, first compound 0.0949 µM
  viability, T/C: 41.5%
Second compound 0.3 µM, first compound 0.3 µM
  viability, T/C: 37.4%
